# Laboratory results as given in patent publication US12064514B2, “Ultrasound-sensitive peptide particles for spatially resolved molecule delivery” (The Penn State Research Foundation, priority 2017, dated 2024).
# Key:
# [1] = test system: green fluorescent protein (GFP); assay: screening of fluorine-containing cargo solubilizing agents for GFP dispersion in perfluorocarbon; details: for GFP dispersion efficiency: in PFH, after resuspension in aqueous buffer
# Method: For each condition, 200 ul of compounds+PFH was aliquoted into an Eppendorf tube containing individually dried GFP stocks (1 uM) for 9 replicates. Each tube was parafilmed, vortexed, placed on VWR tube rotator overnight at 4° C., and then centrifuged for 5 min at 4000 rpm. Next, 100 ul of each sample was aliquoted onto a black bottom 96-well plate for fluorescence scan from 500 to 560. The 96-well plate was then placed in 37° C. overnight to dry the PFH. The dry samples were resuspended in 100 ul PBS and scanned for fluorescence using BioTek Cytation 3 imaging reader. […] Here, PFH is used as a surrogate for the penultimate solvent perfluoro-n-pentane (PFP) used to form the peptisome core, as PFP has a low boiling point and low surface tension, making it difficult to use in these screening experiments.
# Fluorine-containing cargo solubilizing agent #6 (perfluorononanoic acid, PNFA) was dissolved at various concentrations in PFH to achieve molar ratios with GFP at 400:1 to 50,000:1 fluorine-containing cargo solubilizing agent-to-GFP. For this molar ratio screening, PFNA was vortexed and sonicated to dissolve into PFH at 0.4, 2, 50, and 100 mM. For each condition, 200 ul of PFNA+PFH was aliquoted into an Eppendorf tube containing individually dried GFP (1 uM) for 9 replicates. Each tube was parafilmed, vortexed, placed on VWR tube rotator overnight at 4° C., and then centrifuged for 5 min at 4000 rpm. Next, 100 ul of each sample was aliquoted onto a black bottom 96-well plate for fluorescence scan from 500 to 560. The 96-well plate was then placed in 37° C. overnight to dry the PFH. The dry samples were resuspended in 100 ul PBS and scanned for fluorescence using BioTek Cytation 3 imaging reader.
# For PFH and PFP solvent comparison, 2 mM PFNA was vortexed and sonicated to dissolve into either PFH or PFP on ice. For each condition, 200 ul of adjuvant/PFH or adjuvant/PFP was aliquoted into an Eppendorf tube containing individually dried GFP stocks (1 uM) for 3 replicates. Each tube was parafilmed, vortexed, placed on VWR tube rotator overnight at 4° C., and then centrifuged for 5 min at 4000 rpm. Next, 100 ul of each sample was aliquoted onto a black bottom 96-well plate for fluorescence scan from 500 to 560. The 96-well plate was then placed in 37° C. overnight to dry the PFH and PFP.
# αVβ3 integrin = αVβ3 integrin (Homo sapiens, UniProt P05106+P06756); details: read-out: binding affinity to αVβ3 integrin (IC50, conc. at which 50% of receptor is bound by ligand); cited from earlier work
# Sequence of αVβ3 integrin (P06756 31-1048): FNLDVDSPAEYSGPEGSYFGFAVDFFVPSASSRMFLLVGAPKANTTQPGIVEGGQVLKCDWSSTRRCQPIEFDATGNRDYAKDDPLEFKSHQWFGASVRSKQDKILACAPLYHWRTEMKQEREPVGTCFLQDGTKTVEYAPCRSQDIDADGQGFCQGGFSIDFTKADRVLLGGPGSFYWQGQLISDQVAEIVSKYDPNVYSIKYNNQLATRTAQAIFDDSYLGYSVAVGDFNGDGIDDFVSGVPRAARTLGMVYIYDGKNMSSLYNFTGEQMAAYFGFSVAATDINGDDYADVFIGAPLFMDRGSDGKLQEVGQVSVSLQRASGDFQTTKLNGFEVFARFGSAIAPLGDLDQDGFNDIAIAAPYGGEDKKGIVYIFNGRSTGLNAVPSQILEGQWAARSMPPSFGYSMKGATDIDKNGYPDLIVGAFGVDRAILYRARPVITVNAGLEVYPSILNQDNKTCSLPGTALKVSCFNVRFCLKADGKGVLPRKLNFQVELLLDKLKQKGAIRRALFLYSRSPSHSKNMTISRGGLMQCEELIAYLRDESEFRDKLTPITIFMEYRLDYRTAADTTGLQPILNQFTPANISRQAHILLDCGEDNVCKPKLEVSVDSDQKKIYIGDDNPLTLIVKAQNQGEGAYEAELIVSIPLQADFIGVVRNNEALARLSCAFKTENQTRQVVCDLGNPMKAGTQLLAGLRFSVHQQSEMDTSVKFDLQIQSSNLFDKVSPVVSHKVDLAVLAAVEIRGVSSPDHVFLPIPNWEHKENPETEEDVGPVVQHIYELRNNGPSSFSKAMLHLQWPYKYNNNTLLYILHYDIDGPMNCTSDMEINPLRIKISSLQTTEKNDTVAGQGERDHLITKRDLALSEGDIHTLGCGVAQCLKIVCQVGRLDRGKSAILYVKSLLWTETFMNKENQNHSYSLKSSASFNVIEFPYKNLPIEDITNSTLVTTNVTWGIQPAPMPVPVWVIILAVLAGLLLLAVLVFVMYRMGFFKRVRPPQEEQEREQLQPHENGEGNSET
# Sequence of αVβ3 integrin (P05106 27-788): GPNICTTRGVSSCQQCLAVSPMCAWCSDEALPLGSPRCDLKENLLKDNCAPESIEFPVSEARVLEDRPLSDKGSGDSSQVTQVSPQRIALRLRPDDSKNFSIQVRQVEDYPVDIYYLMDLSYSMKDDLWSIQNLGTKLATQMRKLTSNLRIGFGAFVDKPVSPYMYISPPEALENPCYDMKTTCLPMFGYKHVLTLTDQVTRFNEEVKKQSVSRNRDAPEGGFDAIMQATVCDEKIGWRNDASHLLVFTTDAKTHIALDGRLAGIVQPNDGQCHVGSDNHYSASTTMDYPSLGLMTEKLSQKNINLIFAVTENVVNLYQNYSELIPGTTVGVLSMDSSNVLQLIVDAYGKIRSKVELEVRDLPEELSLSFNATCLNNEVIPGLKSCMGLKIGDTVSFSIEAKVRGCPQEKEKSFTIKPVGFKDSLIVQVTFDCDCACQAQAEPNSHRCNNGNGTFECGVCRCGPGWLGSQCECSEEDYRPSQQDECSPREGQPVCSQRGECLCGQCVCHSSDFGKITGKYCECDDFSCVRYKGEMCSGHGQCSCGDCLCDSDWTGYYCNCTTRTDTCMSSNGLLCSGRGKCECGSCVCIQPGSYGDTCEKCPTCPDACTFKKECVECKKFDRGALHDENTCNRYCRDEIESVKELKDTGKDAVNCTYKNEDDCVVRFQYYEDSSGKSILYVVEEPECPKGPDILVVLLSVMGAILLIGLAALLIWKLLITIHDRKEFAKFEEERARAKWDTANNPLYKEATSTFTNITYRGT
Compound,GFP dispersion efficiency [1] [%],IC50 (αVβ3 integrin) [nM],also measured
"FC(F)(F)C(F)(F)C(F)(F)C(F)(F)C(F)(F)C(F)(F)C(F)(F)C(F)(F)C(F)(F)C(F)(F)C(F)(F)C(F)(F)C(F)(F)C(F)(F)F [Compound 2, perfluoroteradecane]",5.1,,
"O=C(O)C(F)(F)C(F)(F)C(F)(F)C(F)(F)F [Compound 5, perfluoropentanoic acid]",4.3,,
"O=C(O)C(F)(F)C(F)(F)C(F)(F)C(F)(F)C(F)(F)C(F)(F)C(F)(F)C(F)(F)F [Compound 6, perfluorononanoic acid]",39.3,,"protein dispersed within PFH compared to compound 5 [1]: approximately 10 fold; protein dispersion with PFP compared to PFH ([1]; 2000:1 molar ratio): no significant difference; total GFP loading efficiency into PFH ([1]; molar ratios of 2,000 to 10,000:1 agent-to-GFP): ~63%"
GRGD,,55 ± 7,
GRGDNP,,45 ± 12,
GRGDS,,28 ± 3,
GRGDSPK,,12.2 ± 0.1,
GRGDTP,,28 ± 5,
RGD,,89 ± 12,
RGDS,,45 ± 5,
